Data: the supplement of paper PMC10307832

Assays:
Test in all cases: relative viability (nuclei count vs DMSO), 5 days (fraction); higher = more cells survive
[1] = compound: NS(=O)(=O)OC[C@@H]1C[C@@H](n2ccc3c(N[C@H]4CCc5ccccc54)ncnc32)C[C@@H]1O [MLN4924] + N=C(N)NC(=N)NCCc1ccccc1 [Phenformin] (partner 250 µM)
Procedure, shortened: (§1)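 Lung cancer cell lines in 1536-well plates got either a single drug or a fixed anchor-drug dose together with five library-drug doses (not always all listed) in √10 steps, by pin tool, on the day after seeding. Nuclei were counted after 5 days, and relative viability is the treated-to-vehicle ratio of nuclei counts. Values are medians of duplicate plates.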

[2] = compound: NS(=O)(=O)OC[C@@H]1C[C@@H](n2ccc3c(N[C@H]4CCc5ccccc54)ncnc32)C[C@@H]1O [MLN4924] + CS(=O)(=O)CCNCc1ccc(-c2ccc3ncnc(Nc4ccc(OCc5cccc(F)c5)c(Cl)c4)c3c2)o1 [Lapatinib] (partner 2 µM)
Procedure, shortened: as §1

[3] = compound: CC[C@H](C)N1C=C(C2=C(C=C(C=C21)C3=CN=C(C=C3)N4CCNCC4)C(=O)NCC5=C(C=C(NC5=O)C)C)C [GSK126] + Cc1nc(Nc2ncc(C(=O)Nc3c(C)cccc3Cl)s2)cc(N2CCN(CCO)CC2)n1 [Dasatinib] (partner 0.075 µM)
Procedure, shortened: as §1

[4] = compound: C1CC(C1)(C(=O)O)C(=O)O.[NH2-].[NH2-].[Pt+2] [Carboplatin] + Cc1nc(Nc2ncc(C(=O)Nc3c(C)cccc3Cl)s2)cc(N2CCN(CCO)CC2)n1 [Dasatinib] (partner 0.075 µM)
Procedure, shortened: as §1

Row | Cell Line | relative viability ([1]; first compound 0.04 µM) | relative viability ([1]; first compound 0.1265 µM) | relative viability ([1]; first compound 0.4 µM) | relative viability ([1]; first compound 1.265 µM) | relative viability ([1]; first compound 4 µM) | relative viability ([2]; first compound 0.04 µM) | relative viability ([2]; first compound 0.1265 µM) | relative viability ([2]; first compound 0.4 µM) | relative viability ([2]; first compound 1.265 µM) | relative viability ([2]; first compound 4 µM) | relative viability ([3]; first compound 0.08 µM) | relative viability ([3]; first compound 0.253 µM) | relative viability ([3]; first compound 0.8 µM) | relative viability ([3]; first compound 2.53 µM) | relative viability ([3]; first compound 8 µM) | relative viability ([4]; first compound 0.08 µM) | relative viability ([4]; first compound 0.253 µM) | relative viability ([4]; first compound 0.8 µM) | relative viability ([4]; first compound 2.53 µM) | relative viability ([4]; first compound 8 µM)
1 | ABC-1 | 0.274 | 0.298 | 0.229 | 0.212 | 0.222 | 1.11 | 1.45 | 1.71 | 0.773 | 0.552 | 0.591 | 0.544 | 0.678 | 0.535 | 0.45 | 0.654 | 0.639 | 0.522 | 0.546 | 0.458
2 | LK-2 | 0.312 | 0.31 | 0.262 | 0.167 | 0.173 | 0.521 | 0.656 | 0.638 | 0.272 | 0.257 | 0.361 | 0.336 | 0.196 | 0.41 | 0.259 | 0.275 | 0.252 | 0.295 | 0.197 | 0.379
3 | NCI-H2085 | 0.754 | 0.676 | 0.598 | 0.443 | 0.348 | 0.812 | 0.89 | 0.465 | 0.313 | 0.283 | 0.248 | 0.234 | 0.285 | 0.287 | 0.217 | 0.243 | 0.293 | 0.243 | 0.239 | 0.255
4 | NCI-H650 | 0.355 | 0.287 | 0.224 | 0.197 | 0.199 | 0.492 | 0.543 | 0.26 | 0.166 | 0.169 | 0.468 | 0.493 | 0.432 | 0.39 | 0.455 | 0.472 | 0.47 | 0.399 | 0.423 | 0.371
5 | NCI-H2170 | 0.359 | 0.305 | 0.214 | 0.183 | 0.185 | 0.258 | 0.301 | 0.25 | 0.208 | 0.228 | 0.544 | 0.533 | 0.574 | 0.612 | 0.686 | 0.634 | 0.654 | 0.663 | 0.583 | 0.468
6 | LC-2-ad | 0.506 | 0.491 | 0.372 | 0.223 | 0.203 | 0.561 | 0.505 | 0.143 | 0.104 | 0.107 | 0.606 | 0.66 | 0.565 | 0.643 | 0.585 | 0.701 | 0.567 | 0.414 | 0.416 | 0.277
7 | NCI-H322M | 0.908 | 0.65 | 0.473 | 0.248 | 0.306 | 0.796 | 1.01 | 1.19 | 0.301 | 0.285 | 0.247 | 0.252 | 0.266 | 0.278 | 0.27 | 0.281 | 0.243 | 0.255 | 0.256 | 0.257
8 | LCLC-97TM1 | 0.417 | 0.314 | 0.288 | 0.108 | 0.137 | 0.853 | 0.798 | 0.189 | 0.11 | 0.137 | 0.845 | 0.922 | 0.918 | 0.822 | 0.897 | 0.848 | 0.921 | 0.844 | 0.808 | 0.647
9 | NCI-H596 | 0.751 | 0.914 |  | 0.835 | 0.763 | 1.1 | 1.05 | 0.438 | 0.397 | 0.38 | 0.692 | 0.537 | 0.633 | 0.887 | 0.594 | 0.725 | 0.72 | 0.697 | 0.525 | 0.539
10 | NCI-H1792 | 0.403 | 0.324 | 0.725 | 0.258 | 0.217 | 0.806 | 0.599 | 0.484 | 0.182 | 0.175 | 0.829 | 0.607 | 0.743 | 0.608 | 0.72 | 0.831 | 0.776 | 0.816 | 0.692 | 0.62
11 | NCI-H1944 | 0.22 | 0.187 | 0.173 | 0.112 | 0.122 | 0.834 | 0.919 | 0.636 | 0.164 | 0.17 | 0.236 | 0.213 | 0.229 | 0.24 | 0.297 | 0.235 | 0.206 | 0.226 | 0.22 | 0.174
12 | NCI-H1755 | 0.605 | 0.534 | 0.332 | 0.228 | 0.23 | 0.933 | 1.03 | 0.386 | 0.181 | 0.165 | 0.502 | 0.49 | 0.405 | 0.448 | 0.428 | 0.451 | 0.441 | 0.395 | 0.462 | 0.452
13 | H3255 | 0.374 | 0.331 | 0.265 | 0.264 | 0.325 | 0.253 | 0.38 | 0.201 | 0.185 | 0.208 | 0.396 | 0.383 | 0.393 | 0.419 | 0.346 | 0.367 | 0.416 | 0.418 | 0.415 | 0.334
14 | NCI-H23 | 0.764 | 0.8 | 0.406 | 0.341 | 0.233 | 0.282 | 0.232 | 0.202 | 0.125 | 0.169 | 0.884 | 0.789 | 0.782 | 0.858 | 0.749 | 0.918 | 0.854 | 0.673 | 0.534 | 0.663
